Reference: patent US20130261134A1, “MESYLATE SALT FORMS OF A POTENT HCV INHIBITOR” (Boehringer Ingelheim International GmbH, priority 2012, published 2013)

Assay: Solubility in the physiological pH range
Assay type: physicochemical
Settings: aqueous buffer; physiological pH range of 2-6.8

solubility: < 0.2 µg/mL
Compound: Cn1c(C2(NC(=O)c3ccc4c(C5CCCC5)c(-c5ncc(Br)cn5)n(C)c4c3)CCC2)nc2ccc(/C=C/C(=O)O)cc21 [Compound (1), (E)-3-[2-(1-{[2-(5-Bromo-pyrimidin-2-yl)-3-cyclopentyl-1-methyl-1H-indole-6-carbonyl]-amino}-cyclobutyl)-3-methyl-3H-benzimidazol-5-yl]-acrylic acid]
